# Measured values as given in PubChem BioAssay AID1259407 (Chemical Carcinogenesis Research Information System (CCRIS), 2018).
# The source made the active and inactive calls. No rule for the calls is given here.
# Test system: CCRIS mutagenicity, Ames/micronucleus/aberration tests
# Assay: CCRIS mutagenicity studies
# Excerpt: The CCRIS database contains chemical records with carcinogenicity, mutagenicity, tumor promotion, and tumor inhibition test results. It was developed by the National Cancer Institute (NCI). Data are derived from studies cited in primary journals, current awareness tools, NCI reports, and other sources. Test results have been reviewed by experts in carcinogenesis and mutagenesis.
# CCRIS provides historical information from the years 1985 - 2011. It is no longer updated.
# This is an archive assay for CCRIS mutagenicity studies.
# [1] = Test System: AMES SALMONELLA TYPHIMURIUM, Strain/Indicator: TA98, Metabolic Activation: NONE, Method: PREINCUBATION
# [2] = Test System: AMES SALMONELLA TYPHIMURIUM, Strain/Indicator: TA100, Metabolic Activation: NONE, Method: PREINCUBATION
# [3] = Test System: AMES SALMONELLA TYPHIMURIUM, Strain/Indicator: TA1535, Metabolic Activation: NONE, Method: PREINCUBATION
# [4] = Test System: AMES SALMONELLA TYPHIMURIUM, Strain/Indicator: TA1537, Metabolic Activation: NONE, Method: PREINCUBATION
# [5] = Test System: AMES SALMONELLA TYPHIMURIUM, Strain/Indicator: TA1538, Metabolic Activation: NONE, Method: PREINCUBATION
compound,measurement,setting,value
CCCCOC(=O)CCC,mutagenic call,"Test System: AMES SALMONELLA TYPHIMURIUM, Strain/Indicator: TA97, Metabolic Activation: NONE, Method: PREINCUBATION",inactive; negative
same,mutagenic call,"Test System: AMES SALMONELLA TYPHIMURIUM, Strain/Indicator: TA97, Metabolic Activation: RAT, LIVER, S-9, AROCLOR 1254, Method: PREINCUBATION",inactive; negative
same,mutagenic call,"Test System: AMES SALMONELLA TYPHIMURIUM, Strain/Indicator: TA102, Metabolic Activation: NONE, Method: PREINCUBATION",inactive; negative
same,mutagenic call,"Test System: AMES SALMONELLA TYPHIMURIUM, Strain/Indicator: TA102, Metabolic Activation: RAT, LIVER, S-9, AROCLOR 1254, Method: PREINCUBATION",inactive; negative
Cc1ccc2cc3c4c(ccc3c3c2c1CC3)C(O)C(O)C=C4 (centres undefined),mutagenic call,"Test System: CHINESE HAMSTER V-79, Strain/Indicator: V-79/8-AZAGUANINE, Metabolic Activation: NONE, Method: STANDARD PLATE",active; positive
Cc1cccc(Nc2cc(Cl)nc(SCC(=O)O)n2)c1C,mutagenic call,"Test System: AMES SALMONELLA TYPHIMURIUM, Strain/Indicator: TA98, Metabolic Activation: NONE",inactive; negative
same,mutagenic call,"Test System: AMES SALMONELLA TYPHIMURIUM, Strain/Indicator: TA98, Metabolic Activation: RAT, LIVER, S-9, AROCLOR 1254",inactive; negative
same,mutagenic call,"Test System: AMES SALMONELLA TYPHIMURIUM, Strain/Indicator: TA102, Metabolic Activation: NONE",inactive; negative
same,mutagenic call,"Test System: AMES SALMONELLA TYPHIMURIUM, Strain/Indicator: TA102, Metabolic Activation: RAT, LIVER, S-9, AROCLOR 1254",inactive; negative
same,mutagenic call,"Test System: AMES SALMONELLA TYPHIMURIUM, Strain/Indicator: TA104, Metabolic Activation: NONE",inactive; negative
same,mutagenic call,"Test System: AMES SALMONELLA TYPHIMURIUM, Strain/Indicator: TA104, Metabolic Activation: RAT, LIVER, S-9, AROCLOR 1254",inactive; negative
same,mutagenic call,"Test System: UDS RAT HEPATOCYTES, Strain/Indicator: BROMODEOXYURIDINE INCORP, Metabolic Activation: NONE",active; positive
same,mutagenic call,"Test System: UDS RAT HEPATOCYTES, Strain/Indicator: BROMODEOXYURIDINE INCORP, Metabolic Activation: NONE, Method: FLOW CYTOMETRIC ANALYSIS",inactive; negative
same,mutagenic call,"Test System: UDS RAT HEPATOCYTES, Strain/Indicator: THY INCORP, Metabolic Activation: NONE, Method: AUTORADIOGRAPHY",inactive; negative
same,mutagenic call,"Test System: UDS RAT HEPATOCYTES, Strain/Indicator: THY INCORP, Metabolic Activation: NONE, Method: LIQUID SCINTILLATION COUNTING",active; positive
N=C(N)N,mutagenic call,[1],inactive; negative
same,mutagenic call,"Test System: AMES SALMONELLA TYPHIMURIUM, Strain/Indicator: TA98, Metabolic Activation: RAT LIVER S-9, PHENOBARBITAL AND BETA-NAPHTHOFLAVONE, Method: PREINCUBATION",inactive; negative
same,mutagenic call,[2],inactive; negative
same,mutagenic call,"Test System: AMES SALMONELLA TYPHIMURIUM, Strain/Indicator: TA100, Metabolic Activation: RAT LIVER S-9, PHENOBARBITAL AND BETA-NAPHTHOFLAVONE, Method: PREINCUBATION",inactive; negative
same,mutagenic call,[3],inactive; negative
same,mutagenic call,"Test System: AMES SALMONELLA TYPHIMURIUM, Strain/Indicator: TA1535, Metabolic Activation: RAT LIVER S-9, PHENOBARBITAL AND BETA-NAPHTHOFLAVONE, Method: PREINCUBATION",inactive; negative
same,mutagenic call,[4],inactive; negative
same,mutagenic call,"Test System: AMES SALMONELLA TYPHIMURIUM, Strain/Indicator: TA1537, Metabolic Activation: RAT LIVER S-9, PHENOBARBITAL AND BETA-NAPHTHOFLAVONE, Method: PREINCUBATION",inactive; negative
same,mutagenic call,[5],inactive; negative
same,mutagenic call,"Test System: AMES SALMONELLA TYPHIMURIUM, Strain/Indicator: TA1538, Metabolic Activation: RAT LIVER S-9, PHENOBARBITAL AND BETA-NAPHTHOFLAVONE, Method: PREINCUBATION",inactive; negative
same,mutagenic call,"Test System: E.COLI, Strain/Indicator: WP2UVRA, Metabolic Activation: NONE, Method: PREINCUBATION",inactive; negative
same,mutagenic call,"Test System: E.COLI, Strain/Indicator: WP2UVRA, Metabolic Activation: RAT LIVER S-9, PHENOBARBITAL AND BETA-NAPHTHOFLAVONE, Method: PREINCUBATION",inactive; negative
C=C(C)C(=O)O,mutagenic call,"Test System: AMES SALMONELLA TYPHIMURIUM, Strain/Indicator: TA98, Metabolic Activation: HAMSTER, LIVER, S-9, AROCLOR 1254, Method: PREINCUBATION",inactive; negative
same,mutagenic call,[1],inactive; negative
same,mutagenic call,"Test System: AMES SALMONELLA TYPHIMURIUM, Strain/Indicator: TA98, Metabolic Activation: RAT, LIVER, S-9, AROCLOR 1254, Method: PREINCUBATION",inactive; negative
same,mutagenic call,"Test System: AMES SALMONELLA TYPHIMURIUM, Strain/Indicator: TA100, Metabolic Activation: HAMSTER, LIVER, S-9, AROCLOR 1254, Method: PREINCUBATION",inactive; negative
same,mutagenic call,[2],inactive; negative
same,mutagenic call,"Test System: AMES SALMONELLA TYPHIMURIUM, Strain/Indicator: TA100, Metabolic Activation: RAT, LIVER, S-9, AROCLOR 1254, Method: PREINCUBATION",inactive; negative
same,mutagenic call,"Test System: AMES SALMONELLA TYPHIMURIUM, Strain/Indicator: TA1535, Metabolic Activation: HAMSTER, LIVER, S-9, AROCLOR 1254, Method: PREINCUBATION",inactive; negative
same,mutagenic call,[3],inactive; negative
same,mutagenic call,"Test System: AMES SALMONELLA TYPHIMURIUM, Strain/Indicator: TA1535, Metabolic Activation: RAT, LIVER, S-9, AROCLOR 1254, Method: PREINCUBATION",inactive; negative
same,mutagenic call,"Test System: AMES SALMONELLA TYPHIMURIUM, Strain/Indicator: TA1537, Metabolic Activation: HAMSTER, LIVER, S-9, AROCLOR 1254, Method: PREINCUBATION",inactive; negative
same,mutagenic call,[4],inactive; negative
same,mutagenic call,"Test System: AMES SALMONELLA TYPHIMURIUM, Strain/Indicator: TA1537, Metabolic Activation: RAT, LIVER, S-9, AROCLOR 1254, Method: PREINCUBATION",inactive; negative
O=C(Cl)c1ccc(C(=O)Cl)cc1,mutagenic call,[1],active; positive
same,mutagenic call,"Test System: AMES SALMONELLA TYPHIMURIUM, Strain/Indicator: TA98, Metabolic Activation: RAT LIVER S-9, PCB, Method: PREINCUBATION",active; positive
same,mutagenic call,[2],active; positive
same,mutagenic call,"Test System: AMES SALMONELLA TYPHIMURIUM, Strain/Indicator: TA100, Metabolic Activation: RAT LIVER S-9, PCB, Method: PREINCUBATION",active; positive
same,mutagenic call,"Test System: AMES SALMONELLA TYPHIMURIUM, Strain/Indicator: TA104, Metabolic Activation: NONE, Method: PREINCUBATION",active; positive
same,mutagenic call,"Test System: AMES SALMONELLA TYPHIMURIUM, Strain/Indicator: TA104, Metabolic Activation: RAT LIVER S-9, PCB, Method: PREINCUBATION",active; positive
same,mutagenic call,"Test System: E.COLI, Strain/Indicator: WP2 UVRA, Metabolic Activation: NONE, Method: PREINCUBATION",active; positive
same,mutagenic call,"Test System: E.COLI, Strain/Indicator: WP2 UVRA, Metabolic Activation: RAT LIVER S-9, PCB, Method: PREINCUBATION",active; positive
Cc1cc(N)c(S(=O)(=O)O)cc1Cl,mutagenic call,[1],inactive; negative
same,mutagenic call,"Test System: AMES SALMONELLA TYPHIMURIUM, Strain/Indicator: TA98, Metabolic Activation: RAT, LIVER, S-9, KC 500, Method: PREINCUBATION",inactive; negative
same,mutagenic call,[2],inactive; negative
same,mutagenic call,"Test System: AMES SALMONELLA TYPHIMURIUM, Strain/Indicator: TA100, Metabolic Activation: RAT, LIVER, S-9, KC 500, Method: PREINCUBATION",inactive; negative
same,mutagenic call,[3],inactive; negative
same,mutagenic call,"Test System: AMES SALMONELLA TYPHIMURIUM, Strain/Indicator: TA1535, Metabolic Activation: RAT, LIVER, S-9, KC 500, Method: PREINCUBATION",inactive; negative
same,mutagenic call,[4],inactive; negative
same,mutagenic call,"Test System: AMES SALMONELLA TYPHIMURIUM, Strain/Indicator: TA1537, Metabolic Activation: RAT, LIVER, S-9, KC 500, Method: PREINCUBATION",inactive; negative
same,mutagenic call,[5],inactive; negative
same,mutagenic call,"Test System: AMES SALMONELLA TYPHIMURIUM, Strain/Indicator: TA1538, Metabolic Activation: RAT, LIVER, S-9, KC 500, Method: PREINCUBATION",inactive; negative
same,mutagenic call,"Test System: E. COLI, Strain/Indicator: WP2 UVRA, Metabolic Activation: NONE, Method: PREINCUBATION",inactive; negative
same,mutagenic call,"Test System: E. COLI, Strain/Indicator: WP2 UVRA, Metabolic Activation: RAT, LIVER, S-9, KC 500, Method: PREINCUBATION",inactive; negative
